Patent publication US20260034094A1, “COMPOSITIONS AND METHODS FOR INDUCING FERROPTOSIS” (Kojin Therapeutics, Inc., priority 2022, published 2026)
pEC50, pIC50: −log10 of the molar value. Where “and” joins values, the source holds several entries; their conditions need not be identical. Identical values can stand only once. Like-named read-outs stand apart in the source and are kept apart here.

Experiments:
RKN cells = experiment: RKN cell profiling assay (cell viability, CellTiter-Glo); format: cell-based; details: 96 h exposure, read-out: Cell Killing EC50
Summary of the method: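 Cells seeded at 1,000/well in F-12 with 10% FBS, left to adhere 24 h, then compound-treated for 96 h at 0.5% final DMSO. Viability by CellTiter-Glo luminescence; EC50 from four-parameter logistic fit. Ferroptosis rescue runs included 1.5 μM ferrostatin-1 added at seeding.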

human recombinant GCL = human recombinant GCL (Homo sapiens (Human), UniProt P48506); experiment: GCL enzyme profiling assay (ADP-Glo luminescence); format: biochemical; details: human recombinant GCL 5 nM, 1 h preincubation with ATP; for pIC50: read-out: GCL IC50; for IC50: read-out: GCL IC50 (mM), individual values in parentheses
Sequence of human recombinant GCL (P48506 whole entry): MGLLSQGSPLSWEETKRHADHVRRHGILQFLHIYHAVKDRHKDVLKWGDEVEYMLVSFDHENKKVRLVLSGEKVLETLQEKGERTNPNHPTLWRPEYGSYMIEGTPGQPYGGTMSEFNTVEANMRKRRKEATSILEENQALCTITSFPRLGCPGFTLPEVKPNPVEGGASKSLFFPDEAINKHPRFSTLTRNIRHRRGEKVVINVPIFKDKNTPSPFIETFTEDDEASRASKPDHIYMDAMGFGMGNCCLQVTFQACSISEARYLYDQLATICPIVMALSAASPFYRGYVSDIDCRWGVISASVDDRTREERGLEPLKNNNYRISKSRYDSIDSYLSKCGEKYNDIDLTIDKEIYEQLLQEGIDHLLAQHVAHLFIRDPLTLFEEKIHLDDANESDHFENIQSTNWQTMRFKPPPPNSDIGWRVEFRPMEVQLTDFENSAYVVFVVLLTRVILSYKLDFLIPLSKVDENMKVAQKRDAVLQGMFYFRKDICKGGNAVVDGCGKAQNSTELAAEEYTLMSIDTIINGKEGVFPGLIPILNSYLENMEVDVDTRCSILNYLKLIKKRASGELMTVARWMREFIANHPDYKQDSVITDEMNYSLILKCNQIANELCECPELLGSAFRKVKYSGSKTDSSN
Summary of the method: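 ADP-Glo luminescence readout; 5 nM enzyme preincubated 1 h at 22 °C with 0.6 mM ATP, then started with 1 mM glutamate and 1.2 mM α-aminobutyrate, stopped after 2 h. Buffer: HEPES pH 7.5, MgCl2, DTT, BSA, 0.2% F-127, 1% DMSO. IC50 from four-parameter logistic fit.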

pIC50 (human recombinant GCL)	IC50 (human recombinant GCL)	Compound	pEC50 (RKN cells; 96 h)	pEC50 (RKN cells)
2.70 to 4.70		N=S(=O)(/C=C/c1ccccc1)CC[C@H](N)C(=O)O (stereo partly drawn) [Compound 156]	≤ 3.00	
2.70 to 4.70		N=S(=O)(CCC1CCOCC1)CC[C@H](N)C(=O)O (stereo partly drawn) [Compound 157]	≤ 3.00	
2.70 to 4.70		COC(C)(C)CCS(=N)(=O)CC[C@H](N)C(=O)O (stereo partly drawn) [Compound 158]	> 3.00	
< 2.70		CCCCS(=N)(=O)CC[C@H](NC)C(=O)O (stereo partly drawn) [Compound 159]	≤ 3.00	
2.70 to 4.70		N=S(=O)(CCC1CC(F)(F)C1)CC[C@H](N)C(=O)O (stereo partly drawn) [Compound 161]	> 3.00	
2.70 to 4.70		CC(C)OCCCS(=N)(=O)CC[C@H](N)C(=O)O (stereo partly drawn) [Compound 162]	≤ 3.00	
2.70 to 4.70		CC(C)(F)CCS(=N)(=O)CC[C@H](N)C(=O)O (stereo partly drawn) [Compound 163]	> 3.00	
2.70 to 4.70		COCCS(=N)(=O)CC[C@H](N)C(=O)O (stereo partly drawn) [Compound 164]	≤ 3.00	
≥ 4.70		N=S(=O)(CCC1CCC1)CC[C@H](N)C(=O)O (stereo partly drawn) [Compound 165]	> 3.00	
2.70 to 4.70		CC(C)OCCS(=N)(=O)CC[C@H](N)C(=O)O (stereo partly drawn) [Compound 166]	≤ 3.00	
2.70 to 4.70		COC(=O)C(C)(C)CCS(=N)(=O)CC[C@H](N)C(=O)O (stereo partly drawn) [Compound 167]	> 3.00	
2.70 to 4.70		N=S(=O)(CC[C@H](N)C(=O)O)Cc1ccccc1C(=O)O (stereo partly drawn) [Compound 168]	≤ 3.00	
≥ 4.70 and 2.70 to 4.70	0.0102 mM and 0.1 mM	N=S(=O)(CCCC(F)F)CC[C@H](N)C(=O)O (stereo partly drawn) [Compound 169]	> 3.00	
2.70 to 4.70		N=S(=O)(CCOC(F)F)CC[C@H](N)C(=O)O (stereo partly drawn) [Compound 170]	≤ 3.00	
2.70 to 4.70		CC(C)(C#N)CCS(=N)(=O)CC[C@H](N)C(=O)O (stereo partly drawn) [Compound 171]	≤ 3.00	
2.70 to 4.70		CCC(CC(F)(F)F)CS(=N)(=O)CC[C@H](N)C(=O)O (stereo partly drawn) [Compound 172]	≤ 3.00	
2.70 to 4.70		N=S(=O)(CC[C@H](N)C(=O)O)CCC1(F)CCC1 (stereo partly drawn) [Compound 173]	> 3.00	
2.70 to 4.70		CC(O)(CCS(=N)(=O)CC[C@H](N)C(=O)O)C(F)(F)F (stereo partly drawn) [Compound 174, (2S)-2-amino-4-(4,4,4-trifluoro-3-hydroxy-3-methylbutylsulfonimidoyl)butanoic acid]	> 3.00	
2.70 to 4.70		N=S(=O)(CCOCC(F)(F)F)CC[C@H](N)C(=O)O (stereo partly drawn) [Compound 175]	≤ 3.00	
< 2.70		COC(CC[S@@](=N)(=O)CC[C@H](N)C(=O)O)C(F)(F)F (stereo partly drawn) [Compound 176]	≤ 3.00	
< 2.70		COC(CC[S@@](=N)(=O)CC[C@H](N)C(=O)O)C(F)(F)F (stereo partly drawn) [Compound 177]		≤ 3.00
≥ 4.70		COC(CC[S@](=N)(=O)CC[C@H](N)C(=O)O)C(F)(F)F (stereo partly drawn) [Compound 178]	> 3.00	
≥ 4.70		COC(CC[S@](=N)(=O)CC[C@H](N)C(=O)O)C(F)(F)F (stereo partly drawn) [Compound 179]		> 3.00
≥ 4.70		N=S(=O)(CCC1CCCC1(F)F)CC[C@H](N)C(=O)O (stereo partly drawn) [Compound 180]	≤ 3.00	
2.70 to 4.70		N=S(=O)(CCC1COC1)CC[C@H](N)C(=O)O (stereo partly drawn) [Compound 181]	≤ 3.00	
2.70 to 4.70		N=S(=O)(CC[C@H](N)C(=O)O)CCC1(CO)CCC1 (stereo partly drawn) [Compound 182]	> 3.00	
< 2.70		CC(C)(N)CCS(=N)(=O)CC[C@H](N)C(=O)O (stereo partly drawn) [Compound 183]	≤ 3.00	

pIC50 (human recombinant GCL)	IC50 (human recombinant GCL)	Compound	pEC50 (RKN cells; 96 h)	pEC50 (RKN cells)
2.70 to 4.70		CC(C)(CO)CCS(=N)(=O)CC[C@H](N)C(=O)O (stereo partly drawn) [Compound 184]	> 3.00	
≥ 4.70 and 2.70 to 4.70	0.022 mM and 0.0183 mM	N=S(=O)(CCC(C(F)(F)F)C(F)(F)F)CC[C@H](N)C(=O)O (stereo partly drawn) [Compound 186]	> 3.00	
2.70 to 4.70		CC(C)(C)CCS(=N)(=O)CC[C@H](N)C(=O)O (stereo partly drawn) [Compound 187]	> 3.00	
2.70 to 4.70		N=S(=O)(CC[C@H](N)C(=O)O)CCC1(C(N)=O)CCC1 (stereo partly drawn) [Compound 188, (2S)-2-amino-4-(2-(1-carbamoylcyclobutyl)ethylsulfonimidoyl)butanoic acid]	> 3.00	
2.70 to 4.70		CCOC(=O)C1(CCS(=N)(=O)CC[C@H](N)C(=O)O)CCC1 (stereo partly drawn) [Compound 189]	> 3.00	
2.70 to 4.70		CC(C)(CCS(=N)(=O)CC[C@H](N)C(=O)O)C(N)=O (stereo partly drawn) [Compound 190]	≤ 3.00	
2.70 to 4.70		CNC(=O)C1(CCS(=N)(=O)CC[C@H](N)C(=O)O)CCC1 (stereo partly drawn) [Compound 192]	≤ 3.00	
2.70 to 4.70		CN(C)C(=O)C1(CCS(=N)(=O)CC[C@H](N)C(=O)O)CCC1 (stereo partly drawn) [Compound 193]	≤ 3.00	
2.70 to 4.70		N=S(=O)(CC[C@H](N)C(=O)O)CCC1(C(=O)N2CCCC2)CCC1 (stereo partly drawn) [Compound 194]	≤ 3.00	
2.70 to 4.70		N=S(=O)(CC[C@H](N)C(=O)O)CCC1(C(=O)Nc2ccccc2)CCC1 (stereo partly drawn) [Compound 195]	≤ 3.00	
2.70 to 4.70		N=S(=O)(CC[C@H](N)C(=O)O)CCC1(C(=O)N2CCC2)CCC1 (stereo partly drawn) [Compound 196]	≤ 3.00	
< 2.70		CCCCS(=O)(CC[C@H](N)C(=O)OC)=NC(C)=O (stereo partly drawn) [Compound 197, (2S)-methyl 4-(N-acetylbutylsulfonimidoyl)-2-aminobutanoate]	≤ 3.00	
< 2.70		CCCCS(=N)(=O)CC[C@H](NC(=O)OC)C(=O)OC (stereo partly drawn) [Compound 198, (2S)-methyl 4-(butylsulfonimidoyl)-2-((methoxycarbonyl)amino)butanoate]	≤ 3.00	
< 2.70		CCCCS(=N)(=O)CC[C@H](N)C#N (stereo partly drawn) [Compound 199, (2S)-2-amino-4-(butylsulfonimidoyl)butanenitrile]	≤ 3.00	
2.70 to 4.70		CC(C)(C)CCS1(=O)=NC(=O)[C@@H](N)CC1 (stereo partly drawn) [Compound 201, (1S,4R)-4-amino-1-(3,3-dimethylbutyl)-5,6-dihydro-1,2-thiazin-3 (4H)-one 1-oxide]	> 3.00	
2.70 to 4.70		N[C@H]1CCS(=O)(CCCC(F)(F)F)=NC1=O (stereo partly drawn) [Compound 202, (1S,4R)-4-amino-1-(4,4,4-trifluorobutyl)-5,6-dihydro-1,2-thiazin-3 (4H)-one 1-oxide]	> 3.00	
< 2.70		N=S(=O)(CCCC(F)(F)F)CC[C@H](N)c1ncon1 (stereo partly drawn) [Compound 203, (1S)-1-(1,2,4-oxadiazol-3-yl)-3-(4,4,4-trifluorobutylsulfonimidoyl)propan-1-amine]	≤ 3.00	
< 2.70		N=S(=O)(CCCC(F)(F)F)CC[C@H](N)c1ncno1 (stereo partly drawn) [Compound 204, (1S)-1-(1,2,4-oxadiazol-5-yl)-3-(4,4,4-trifluorobutylsulfonimidoyl)propan-1-amine]	≤ 3.00	
≥ 4.70 and 2.70 to 4.70		N=S(=O)(CCCC(F)(F)F)CC[C@H](N)c1ncn[nH]1 (stereo partly drawn) [Compound 205, (1S)-1-(1H-1,2,4-triazol-5-yl)-3-(4,4,4-trifluorobutylsulfonimidoyl)propan-1-amine]	≤ 3.00	
2.70 to 4.70		N=S(=O)(CC[C@H](N)C(=O)O)CCC1(NC(N)=O)CCC1 (stereo partly drawn) [Compound 206, (2S)-2-amino-4-(2-(1-ureidocyclobutyl)ethylsulfonimidoyl)butanoic acid]	> 3.00	
2.70 to 4.70		CC(C)(CCS(=N)(=O)CC[C@H](N)C(=O)O)n1cc(-c2ccccc2)nn1 (stereo partly drawn) [Compound 207, (2S)-2-amino-4-(3-methyl-3-(4-phenyl-1H-1,2,3-triazol-1-yl)butylsulfonimidoyl)butanoic acid]	≤ 3.00	
≥ 4.70 and 2.70 to 4.70	0.0204 mM and 0.02 mM	CC(C)(CCS(=N)(=O)CC[C@H](N)C(=O)O)n1ncc(-c2ccccc2)n1 (stereo partly drawn) [Compound 208, (2S)-2-amino-4-(3-methyl-3-(4-phenyl-2H-1,2,3-triazol-2-yl)butylsulfonimidoyl)butanoic acid]	> 3.00	
≥ 4.70		N=S(=O)(CC[C@H](N)C(=O)O)CCC(O)(c1ccccc1Cl)C(F)(F)F (stereo partly drawn) [Compound 209, (2S)-2-amino-4-(3-(2-chlorophenyl)-4,4,4-trifluoro-3-hydroxybutylsulfonimidoyl)butanoic acid]	> 3.00	
2.70 to 4.70		N=S(=O)(CCC(N)C(F)(F)F)CC[C@H](N)C(=O)O (stereo partly drawn) [Compound 210, (2S)-2-amino-4-(3-amino-4,4,4-trifluorobutylsulfonimidoyl)butanoic acid]	> 3.00	
≥ 4.70		N=S(=O)(CCC(c1ccc(-c2ccccc2)cc1)C(F)(F)F)CC[C@H](N)C(=O)O (stereo partly drawn) [Compound 211, (2S)-4-(3-([1,1′-biphenyl]-4-yl)-4,4,4-trifluorobutylsulfonimidoyl)-2-aminobutanoic acid]	> 3.00	
≥ 4.70		N=S(=O)(CCC(c1ccc(-c2ccccc2Cl)cc1)C(F)(F)F)CC[C@H](N)C(=O)O (stereo partly drawn) [Compound 212, (2S)-2-amino-4-(3-(2′-chloro-[1,1′-biphenyl]-4-yl)-4,4,4-trifluorobutylsulfonimidoyl)butanoic acid]	> 3.00	

Compound	pIC50 (human recombinant GCL)	IC50 (human recombinant GCL)	pEC50 (RKN cells; 96 h)	pEC50 (RKN cells)
CC1(CCS(=N)(=O)CC[C@H](N)C(=O)O)COC1 (stereo partly drawn) [Compound 185]	2.70 to 4.70			≤ 3.00
